Values joined by “and” are separate entries in the source; they are usually repeats but may differ in a detail not shown here. Equal values may be shown once.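 Assay format: 96-well plates, 48-hour exposure. Abbreviation: GI50, concentration required for 50% inhibition of growth. TGI: total growth inhibition.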
Legend:
Experiment in all cases: inhibition of tumour cell growth, NCI panel, 48 h
OVCAR-3 ovarian = system: OVCAR-3 ovarian
MDA-MB-231 breast = system: MDA-MB-231 breast
SK-MEL-2 melanoma = system: SK-MEL-2 melanoma
EKVX NSCLC = system: EKVX NSCLC
NCI-H522 lung = system: NCI-H522 lung
OVCAR-8 ovarian = system: OVCAR-8 ovarian
LOX IMVI melanoma = system: LOX IMVI melanoma
TK-10 renal = system: TK-10 renal
SF-295 CNS = system: SF-295 CNS
CCRF-CEM leukemia = system: CCRF-CEM leukemia

SMILES	TGI (OVCAR-3 ovarian)	TGI (MDA-MB-231 breast)	TGI (SK-MEL-2 melanoma)	TGI (EKVX NSCLC)	TGI (NCI-H522 lung)	TGI (OVCAR-8 ovarian)	TGI (LOX IMVI melanoma)	TGI (TK-10 renal)	TGI (SF-295 CNS)	TGI (CCRF-CEM leukemia)	GI50 (OVCAR-3 ovarian)	GI50 (MDA-MB-231 breast)	GI50 (SK-MEL-2 melanoma)	GI50 (EKVX NSCLC)	GI50 (NCI-H522 lung)	GI50 (OVCAR-8 ovarian)	GI50 (LOX IMVI melanoma)	GI50 (TK-10 renal)	GI50 (SF-295 CNS)	GI50 (CCRF-CEM leukemia)
COc1cccc2c1C(=O)c1c(O)c3c(c(O)c1C2=O)C[C@@](O)(C(C)=O)CC3OC1CC(OC2CC(N)C(O)C(C)O2)C(O)C(C)O1 (some centres undefined)	> 100 µM	> 100 µM	> 100 µM	> 100 µM	> 100 µM	> 100 µM	> 100 µM	> 100 µM	> 100 µM	44 µM										
COc1cc2c(/C=C3\C(=O)Nc4ccccc43)c[nH]c2cc1C	11.8 µM	2.69 µM	> 63.4 µM	26.5 µM	> 35.3 µM	7.19 µM	4.19 µM	9.95 µM	1.65 µM	0.0734 µM	0.306 µM	0.289 µM	17.7 µM	0.0559 µM	0.833 µM	0.0917 µM	0.652 µM	1.31 µM	0.227 µM	0.0196 µM
Cn1c(COC(=O)NCCn2ccnc2)nc2c(N3CCOCC3)nc(-c3ccccc3)nc21	0.367 µM	2.34 µM	3.3 µM	2.65 µM	1.56 µM	2.63 µM	0.314 µM	2.41 µM	2.89 µM	1.44 µM	0.174 µM	1.06 µM	1.68 µM	1.26 µM	0.352 µM	0.913 µM	0.152 µM	1.07 µM	1.54 µM	0.254 µM
CC(C)(C)C[C@H]1N[C@@H](C(=O)NC2CCC(O)CC2)[C@H](c2cccc(Cl)c2F)[C@@]12C(=O)Nc1cc(Cl)ccc12 (some centres undefined)	21 µM	4.41 µM	19.7 µM	14.2 µM	22.9 µM	39.4 µM	18.1 µM	25 µM	13.6 µM	15.4 µM	8.68 µM	1.82 µM	4.93 µM	3.15 µM	7.89 µM	14.8 µM	0.577 µM	11.9 µM	3.46 µM	3.51 µM
Cn1c(COC(=O)NCCc2ccccn2)nc2c(N3CCOCC3)nc(Cl)nc21	2.58 µM	3.63 µM	3.81 µM	3.7 µM	3.16 µM	10.1 µM	2.39 µM	3.34 µM	19.8 µM	12.6 µM	1.08 µM	1.62 µM	1.88 µM	1.7 µM	1.35 µM	2.38 µM	0.899 µM	1.72 µM	6.73 µM	0.62 µM
COc1cc(N2C(=O)[C@H](Cl)C2c2ccc(SC)cc2)cc(OC)c1OC (some centres undefined)	0.089 µM	> 100 µM	> 100 µM	> 100 µM	0.263 µM	> 100 µM	> 100 µM	> 100 µM	> 100 µM	> 100 µM	0.0294 µM	0.238 µM	0.3 µM	0.209 µM	0.0299 µM	0.226 µM	0.0635 µM	1.94 µM	0.0394 µM	0.305 µM
C=C1C(=O)O[C@@H]2/C=C(/C)[C@@H](OC(C)=O)C/C=C(\C)C(O)[C@@H](OC(=O)/C(C)=C\C)C12 (some centres undefined)	> 100 µM	39.2 µM	76.8 µM	> 100 µM	32.3 µM	75.3 µM	27.7 µM	> 100 µM	> 100 µM	57.2 µM										
Clc1ccccc1C(Nc1cnccn1)Nc1cnccn1	> 100 µM	> 100 µM	> 100 µM	> 100 µM	> 100 µM	> 100 µM	> 100 µM	> 100 µM	> 100 µM	> 100 µM										
CC1CCC2C(C)C(=O)OC2C2(C)C(=O)C=CC12 (centres undefined)	> 10 µM	> 10 µM	> 10 µM	> 10 µM	> 10 µM	> 10 µM	> 10 µM	> 10 µM	> 10 µM	> 10 µM										
COc1ccc(-n2c(=S)sc3c(Cl)nc(C)nc32)c(OC)c1	3.26 µM	10.3 µM	3.97 µM	17 µM	3.89 µM	7.4 µM	3.19 µM	18.7 µM	20.1 µM	7.45 µM	1.8 µM	3.16 µM	2.04 µM	4.55 µM	1.84 µM	2.66 µM	1.71 µM	4.66 µM	7.06 µM	2.66 µM
C[C@@H]1C[C@@H]([C@H](O)CC2CC(=O)NC(=O)C2)C(=O)[C@@H](C)C1		7.16 µM	1.07 µM and 3.27 µM	4.45 µM	0.643 µM and 0.549 µM	1.7 µM and 1.27 µM	3.53 µM and 0.816 µM	2.39 µM and 1.01 µM	1.19 µM and 1.69 µM	1.15 µM and 0.406 µM	0.675 µM	0.608 µM	0.164 µM	0.341 µM	0.126 µM	0.202 µM	0.258 µM	0.22 µM	0.176 µM	0.0958 µM
Cc1cccc(C2NC(=O)c3ccccc3N2)c1 (centres undefined)	> 100 µM	> 87.6 µM	> 42.8 µM	> 100 µM	46.1 µM	> 100 µM	> 100 µM	> 100 µM	> 23.2 µM	> 100 µM										
COc1c2ccoc2nc2c(OC)c(OCC(O)C(C)(C)O)ccc12 (centres undefined)	> 100 µM	> 100 µM	> 100 µM	> 100 µM	> 100 µM	> 100 µM	> 100 µM	> 100 µM	> 100 µM	> 100 µM										
COc1cc(/C=N/NC(=O)c2cnn3c2NC(c2ccccc2)C3)ccc1OC1CCCC1 (centres undefined)	0.697 µM	7.85 µM	6.06 µM	14 µM	6.54 µM	7.61 µM	2.21 µM	16.3 µM	1.66 µM	10.8 µM	0.262 µM	1.67 µM	0.948 µM	1.51 µM	0.475 µM	1.57 µM	0.581 µM	4.06 µM	0.367 µM	0.691 µM
Oc1ccc(Cl)cc1C=Nc1cnc2ccccc2c1	> 59.8 µM	> 85.7 µM	> 80.6 µM	> 86 µM	> 100 µM	> 100 µM	> 100 µM	> 100 µM	> 100 µM	7.1 µM										
CSc1nc(Nc2cccc(NC(=O)CCl)c2)c(C#N)c(-c2cccc([N+](=O)[O-])c2)n1	3.24 µM	10.7 µM	5.22 µM	13.2 µM	5.36 µM	9.37 µM	0.152 µM	10.9 µM	36.4 µM	> 100 µM	1.77 µM	2.39 µM	2.05 µM	3.36 µM	1.68 µM	2.39 µM	0.0373 µM	4.2 µM	9.83 µM	0.34 µM
N#C/C(=C\c1ccc2[nH]ccc2c1)C(=O)NCCCCNC(=O)/C(C#N)=C/c1ccc2[nH]ccc2c1	> 31.6 µM	> 10 µM	> 31.6 µM	> 31.6 µM	> 31.6 µM	> 31.6 µM	> 31.6 µM	> 31.6 µM	> 31.6 µM	> 31.6 µM										

Source: PubChem BioAssay (NCI)
